Reference: ChEMBL document CHEMBL5620360, “Design, synthesis and biological evaluation of 4-(4-aminophenoxy)picolinamide derivatives as potential antitumor agents” (Eur J Med Chem, 2023)

Columns and labels:
[1] = tested on: MCF7; test: cells; settings: Homo sapiens, MCF7, 72 h
[2] = tested on: HeLa; test: Antiproliferative activity against human HeLa cells assessed as reduction in cell viability incubated for 72 hrs by MTT assay; type: functional, cell-based
[3] = tested on: A549
[4] = tested on: A549; test: cells; settings: Homo sapiens, A549, 72 h
[5] = tested on: MCF7
[6] = tested on: A549; test: Induction of apoptosis in human A549 cells assessed as late apoptotic cells at 5 uM measured after 24 hrs by AnnexinV-FITC/PI staining based flow cytometry (reference value: 1.47%); type: functional
[7] = tested on: A549; test: Induction of apoptosis in human A549 cells assessed as necrotic cells at 5 uM measured after 24 hrs by AnnexinV-FITC/PI staining based flow cytometry (reference value: 4.01%); type: functional
[8] = tested on: A549; test: Induction of apoptosis in human A549 cells assessed as viable cells at 5 uM measured after 24 hrs by AnnexinV-FITC/PI staining based flow cytometry (reference value: 93.25%); type: functional; settings: read-out: Activity
[9] = tested on: A549; test: Induction of cell cycle arrest in human A549 cells assessed as accumulation of cells at G2 phase at 5 uM incubated for 24 hrs by propidium iodide staining based flow cytometry (reference value: 7.36%); type: functional
[10] = tested on: A549; test: Induction of cell cycle arrest in human A549 cells assessed as accumulation of cells at S phase at 5 uM incubated for 24 hrs by propidium iodide staining based flow cytometry (reference value: 38.18%); type: functional
[11] = tested on: A549; test: Induction of cell cycle arrest in human A549 cells assessed as accumulation of cells at G1 phase at 5 uM incubated for 24 hrs by propidium iodide staining based flow cytometry (reference value: 54.46%); type: functional
[12] = tested on: A549; test: Induction of apoptosis in human A549 cells assessed as early apoptotic cells at 5 uM measured after 24 hrs by AnnexinV-FITC/PI staining based flow cytometry (reference value: 1.26%); type: functional
[13] = Homo sapiens, HeLa, 72 h, read-out: IC50

| Structure (SMILES) | IC50 [1] | IC50 [2, 13] | IC50 [4] | also measured |
| --- | --- | --- | --- | --- |
| CCCNC(=O)c1cc(Oc2ccc(NC(=O)c3cn(-c4ccc(Br)cc4)c4ncccc4c3=O)cc2)ccn1 | 73.9 µM | 65.9 µM |  | IC50 [3]: Not Active |
| O=C(Nc1ccc(Oc2ccnc(C(=O)N3CCCC3)c2)cc1)c1cn(-c2ccc(Br)cc2F)c2ncccc2c1=O | 78.5 µM |  | 56.8 µM | IC50 ([2]; hela): Not Active |
| O=C(Nc1ccc(Oc2ccnc(C(=O)N3CCCC3)c2)cc1)c1cn(-c2ccccc2)c2ncccc2c1=O | 38.1 µM | 41.2 µM | 47.6 µM |  |
| O=C(NCCCN1CCOCC1)c1cc(Oc2ccc(NC(=O)c3cn(-c4ccc(F)c(Cl)c4)c4ncccc4c3=O)cc2)ccn1 | 43 µM | 39 µM | 7.88 µM |  |
| O=C(Nc1ccc(Oc2ccnc(C(=O)N3CCCC3)c2)cc1)c1cn(-c2ccc(Cl)cc2)c2ncccc2c1=O | 69.8 µM | 67 µM | 57.1 µM |  |
| O=C(NCCCN1CCOCC1)c1cc(Oc2ccc(NC(=O)c3cn(-c4ccc(Br)cc4F)c4ncccc4c3=O)cc2)ccn1 | 0.83 µM | 7.96 µM | 9.27 µM |  |
| O=C(Nc1ccc(Oc2ccnc(C(=O)N3CCCC3)c2)c(F)c1)c1cn(-c2ccc(Cl)cc2)c2ncccc2c1=O | 82.1 µM | 75.4 µM | 79.3 µM |  |
| CCCNC(=O)c1cc(Oc2ccc(NC(=O)c3cn(-c4ccccc4)c4ncccc4c3=O)cc2F)ccn1 | 74 µM | 75 µM | 67.2 µM |  |
| CCCNC(=O)c1cc(Oc2ccc(NC(=O)c3cn(-c4ccc(OC)cc4)c4ncccc4c3=O)cc2)ccn1 | 2.86 µM | 2.01 µM | 0.96 µM |  |
| O=C(NCCCN1CCOCC1)c1cc(Oc2ccc(NC(=O)c3cn(-c4ccc(F)cc4)c4ncccc4c3=O)cc2)ccn1 | 5.75 µM | 7.92 µM | 4.18 µM |  |
| COc1ccc(-n2cc(C(=O)Nc3ccc(Oc4ccnc(C(=O)N5CCCC5)c4)c(F)c3)c(=O)c3cccnc32)cc1 | 77 µM |  |  | IC50 ([2]; hela): Not Active; IC50 [3]: Not Active |
| COc1ccc(-n2cc(C(=O)Nc3ccc(Oc4ccnc(C(=O)N5CCCC5)c4)cc3)c(=O)c3cccnc32)cc1 | 62.1 µM | 57 µM | 33.6 µM |  |
| O=C(Nc1ccc(Oc2ccnc(C(=O)N3CCCC3)c2)c(F)c1)c1cn(-c2ccccc2)c2ncccc2c1=O | 69.4 µM | 60.5 µM |  | IC50 [3]: Not Active |
| CCCNC(=O)c1cc(Oc2ccc(NC(=O)c3cn(-c4ccc(F)c(Cl)c4)c4ncccc4c3=O)cc2F)ccn1 | 39 µM | 43.6 µM | 34.8 µM |  |
| O=C(NCCCN1CCOCC1)c1cc(Oc2ccc(NC(=O)c3cn(-c4ccc(Br)cc4)c4ncccc4c3=O)cc2)ccn1 | 11 µM | 9.76 µM | 0.74 µM |  |
| O=C(Nc1ccc(Oc2ccnc(C(=O)N3CCCC3)c2)c(F)c1)c1cn(-c2ccc(Br)cc2)c2ncccc2c1=O | 44.3 µM | 42.3 µM |  | IC50 [3]: Not Active |
| COc1ccc(-n2cc(C(=O)Nc3ccc(Oc4ccnc(C(=O)NCCCN5CCOCC5)c4)c(F)c3)c(=O)c3cccnc32)cc1 | 30.8 µM | 17.4 µM | 19.3 µM |  |
| CCCNC(=O)c1cc(Oc2ccc(NC(=O)c3cn(-c4ccc(OC)cc4)c4ncccc4c3=O)cc2F)ccn1 | 71.3 µM | 67.5 µM | 51.1 µM |  |

| Structure (SMILES) | IC50 [1] | IC50 [2, 13] | IC50 [4] | also measured |
| --- | --- | --- | --- | --- |
| O=C(NCCCN1CCOCC1)c1cc(Oc2ccc(NC(=O)c3cn(-c4ccc(Cl)cc4)c4ncccc4c3=O)cc2F)ccn1 | 39.3 µM | 29.4 µM | 3.87 µM |  |
| O=C(NCCCN1CCOCC1)c1cc(Oc2ccc(NC(=O)c3cn(-c4ccccc4)c4ncccc4c3=O)cc2F)ccn1 | 23.7 µM | 7.02 µM | 9.57 µM |  |
| CCCNC(=O)c1cc(Oc2ccc(NC(=O)c3cn(-c4ccc(F)cc4)c4ncccc4c3=O)cc2F)ccn1 | 40.7 µM | 23.8 µM | 19.3 µM |  |
| CCCNC(=O)c1cc(Oc2ccc(NC(=O)c3cn(-c4ccc(Br)cc4F)c4ncccc4c3=O)cc2F)ccn1 | 17.3 µM | 41.8 µM | 18.7 µM |  |
| CCCNC(=O)c1cc(Oc2ccc(NC(=O)c3cn(-c4ccc(Br)cc4F)c4ncccc4c3=O)cc2)ccn1 |  | 80.5 µM |  | IC50 [5]: Not Active; IC50 [3]: Not Active |
| O=C(Nc1ccc(Oc2ccnc(C(=O)N3CCCC3)c2)cc1)c1cn(-c2ccc(F)cc2)c2ncccc2c1=O | 15 µM | 5.28 µM | 3.47 µM |  |
| COc1cc2nccc(Oc3ccc(NC(=O)C4(C(=O)Nc5ccc(F)cc5)CC4)cc3)c2cc1OC [CABOZANTINIB] | 3.15 µM | 1.17 µM | 0.62 µM | Activity [6]: 4.25%; Activity [7]: 5.19%; viability at 5 µM [8]: 88.2%; Activity [9]: 11.66%; Activity [10]: 32.15%; Activity [11]: 56.19%; Activity [12]: 2.33% |
| CCCNC(=O)c1cc(Oc2ccc(NC(=O)c3cn(-c4ccc(F)cc4)c4ncccc4c3=O)cc2)ccn1 | 3.01 µM | 1.09 µM | 0.89 µM |  |
| O=C(Nc1ccc(Oc2ccnc(C(=O)N3CCCC3)c2)c(F)c1)c1cn(-c2ccc(F)c(Cl)c2)c2ncccc2c1=O | 2.96 µM | 1.28 µM | 0.98 µM |  |
| O=C(Nc1ccc(Oc2ccnc(C(=O)N3CCCC3)c2)cc1)c1cn(-c2ccc(Br)cc2)c2ncccc2c1=O | 62.1 µM | 75.5 µM |  | IC50 [3]: Not Active |
| CCCNC(=O)c1cc(Oc2ccc(NC(=O)c3cn(-c4ccc(Br)cc4)c4ncccc4c3=O)cc2F)ccn1 | 10.4 µM | 35.9 µM | 8.01 µM |  |
| O=C(NCCCN1CCOCC1)c1cc(Oc2ccc(NC(=O)c3cn(-c4ccc(F)cc4)c4ncccc4c3=O)cc2F)ccn1 | 4.96 µM | 1.57 µM | 0.58 µM |  |
| O=C(NCCCN1CCOCC1)c1cc(Oc2ccc(NC(=O)c3cn(-c4ccc(Br)cc4)c4ncccc4c3=O)cc2F)ccn1 | 4.87 µM | 4.57 µM | 2.91 µM |  |
| O=C(Nc1ccc(Oc2ccnc(C(=O)N3CCCC3)c2)c(F)c1)c1cn(-c2ccc(Br)cc2F)c2ncccc2c1=O |  | 50.8 µM |  | IC50 [5]: Not Active; IC50 [3]: Not Active |
| CCCNC(=O)c1cc(Oc2ccc(NC(=O)c3cn(-c4ccc(Cl)cc4)c4ncccc4c3=O)cc2F)ccn1 | 52.9 µM | 65.3 µM | 45.1 µM |  |
| COc1ccc(-n2cc(C(=O)Nc3ccc(Oc4ccnc(C(=O)NCCCN5CCOCC5)c4)cc3)c(=O)c3cccnc32)cc1 | 29.1 µM | 28.3 µM | 16.2 µM |  |
| O=C(NCCCN1CCOCC1)c1cc(Oc2ccc(NC(=O)c3cn(-c4ccc(Br)cc4F)c4ncccc4c3=O)cc2F)ccn1 | 3.51 µM | 1.85 µM | 1.18 µM |  |
| O=C(Nc1ccc(Oc2ccnc(C(=O)N3CCCC3)c2)c(F)c1)c1cn(-c2ccc(F)cc2)c2ncccc2c1=O | 2.98 µM | 2.13 µM | 1.62 µM |  |
